Test system in the first assay: not given
Assay: not given
To be noted: systemic administration to obese, leptin deficient mice; cited from earlier work.
Chain of human PrCP (P42785 46-496): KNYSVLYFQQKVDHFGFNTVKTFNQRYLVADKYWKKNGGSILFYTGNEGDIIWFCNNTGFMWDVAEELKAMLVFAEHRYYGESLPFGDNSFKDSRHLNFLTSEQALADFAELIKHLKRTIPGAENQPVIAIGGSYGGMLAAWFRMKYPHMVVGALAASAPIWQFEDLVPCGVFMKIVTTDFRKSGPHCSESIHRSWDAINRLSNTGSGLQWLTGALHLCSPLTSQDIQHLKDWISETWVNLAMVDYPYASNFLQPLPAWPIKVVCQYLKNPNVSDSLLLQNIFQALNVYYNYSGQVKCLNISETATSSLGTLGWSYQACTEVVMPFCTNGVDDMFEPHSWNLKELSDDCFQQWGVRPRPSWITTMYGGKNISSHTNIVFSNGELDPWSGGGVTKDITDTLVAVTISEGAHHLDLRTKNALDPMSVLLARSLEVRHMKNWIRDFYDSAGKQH
As for t-butyl carbamate-prolyl prolinal [BPP], the overnight food intake result is given as “suppression of overnight food intake”.

A further assay addresses human PrCP (Homo sapiens (Human), UniProt P42785). Put plainly: Prolylcarboxypeptidase (PRCP) enzyme activity assay, fluorescence intensity kinetic assay. It counts as biochemical. To be noted: recombinant human PrCP (CHO), 15 uM substrate, pH 5.5, 37° C. How it is done:
The potency of compounds of formula I against PrCP was determined by a fluorescence intensity kinetic assay measuring the IC50 values of PrCP inhibitor test compounds. […] The assay was run on a Perkin Elmer Envision 2103 plate reader using a 320 nm excitation filter and a 405 emission filter. The assay was performed using a Hamilton Star liquid handling workstation. The assay employed the internally quenched fluorescent substrate (1S)-1-carboxy-5-[(2,4-dinitrophenyl)amino]pentyl N-[(7-methoxy-2-oxo-2H-chromen-4-yl)acetyl]-L-alanyl-L-prolinate prepared in house.
The assay was run in a 384-well microliter plate at 37° C. with a total volume of 50 uL. Final assay concentrations were 0.13 nM human PrCP (CHO) or 0.09 nM mouse PrCP (CHO) enzyme, 15 uM substrate and varying concentrations of inhibitor in buffer containing 10 mM NaOAc, 100 mM NaCl and 19.5 ug/mL BSA at pH 5.5. The assay also contained 2% DMSO used to solubilize the substrate and inhibitor. Inhibitors were prepared in 100% DMSO and serial diluted (in 100% DMSO) to generate 11 point titration curves. Either 39 uL of human or mouse PrCP enzyme was added to the wells of the assay plate, followed by a 1 uL addition of the serially diluted inhibitor and mixed three times using a 30 uL mix volume. The reaction was initiated by the addition of 10 uL substrate and mixed three times using a 30 μL mix volume. The reactions were monitored continuously over 25 min at 37° C. to obtain initial velocities. IC50 values were calculated by comparing the resulting rates of reaction of the inhibited and control initial velocities.
The enzymes were diluted in a mixture of 10 mM NaOAc (pH 5.5)/100 mM NaCl buffer containing 25 ug/mL bovine serum albumin that had been warmed to 37° C. in a water bath. The PrCP inhibitor test compounds were plated in 100% DMSO with a highest concentration of 500 uM. There were 12 dilution points for each compound tested including a blank with DMSO only. The test compounds from the source titration plate were transferred into the assay reaction plate at a 1:50 dilution using the Hamilton Star workstation and mixed, resulting in a final concentration for the test compounds in the range of 10,000 to 0.066 nM. Likewise, two control compounds were similarly titrated and included in each assay, with final starting concentrations starting at 10,000 nM and 200 nM, respectively. The reaction was initiated by the addition of 75 uM of the (1S)-1-carboxy-5-[(2,4-dinitrophenyl)amino]pentyl N-[(7-methoxy-2-oxo-2H-chromen-4-yl)acetyl]-L-alanyl-L-prolinate substrate, which was diluted in a mixture of 10 mM NaOAc (pH 5.5)/100 mM NaCl that had been warmed to 37° C. in a water bath, dispensed using the Hamilton Star workstation and mixed. The substrate was solubilized in 100% DMSO prior to dilution into the assay. The final assay concentrations in the 50 uL reactions were 15 uM of (1S)-1-carboxy-5-[(2,4-dinitrophenyl)amino]pentyl N-[(7-methoxy-2-oxo-2H-chromen-4-yl)acetyl]-L-alanyl-L-prolinate substrate, 0.13 nM Human PrCP (CHO) or 0.09 nM Mouse PrCP (CHO), and 2% DMSO.
The resulting rates of reaction were used to determine the IC50 value for each PrCP inhibitor compound tested.
As usually defined, the IC50 is the concentration that inhibits the measured activity by half. Consider `Clc1ccc(-c2cc(C3CCN(CCc4ccccc4)CC3)n(-c3ncccn3)n2)cc1` [Example 1, 2-{3-(4-Chlorophenyl)-5-[1-(2-phenylethyl)piperidin-4-yl]-1H-pyrazol-1-yl}pyrimidine], for which the half-inhibitory concentration (IC50) came out at 0.051 nM.

Take `CCn1nc(-c2ccc(Cl)cc2)cc1C1CCN(CCc2ccccc2)CC1` [Example 26, 4-[3-(4-chlorophenyl)-1-ethyl-1 H-pyrazol-5-yl]-1-(2-phenylethyl)piperidine]: the IC50 was determined as 31.8 nM.

Consider `O=C(O)C(CN1CCC(c2cc(-c3ccc(F)cc3)nn2-c2ncccn2)CC1)c1ccccc1` (centres unmarked) [Example 34, 3-{4-[3-(4-fluorophenyl)-1-(pyrimidin-2-yl)-1 H-pyrazol-5-yl]piperidin-1-yl}-2-phenylpropanoic acid], for which the concentration for half-maximal inhibition (IC50) stood at 0.51 nM.

On to `O=C(Cc1ccccc1C(F)(F)F)N1CCC(c2cc(-c3ccc(F)cc3)nn2-c2ncccn2)CC1` [Example 68, 1-{4-[3-(4-fluorophenyl)-1-(pyrimidin-2-yl)-1 H-pyrazol-5-yl]piperidin-1-yl}-2-[2-(trifluoromethyl)phenyl]ethanone], for which the IC50 came out at 1.28 nM.

Consider `O=S(=O)(c1ccc(N2CCC(c3cc(-c4ccc(Cl)cc4)nn3-c3ncccn3)CC2)nc1)N1CCOCC1` [Example 48, 4-[(6-{4-[3-(4-chlorophenyl)-1-(pyrimidin-2-yl)-1 H-pyrazol-5-yl]piperidin-1-yl}pyridin-3-yl)sulfonyl]morpholine], for which the IC50 stood at 80.2 nM.

With `Clc1ccc(-c2cc(C3CCN(CCc4ccccc4)CC3)nn2-c2ccncn2)cc1` [Example 13, 4-{5-(4-chlorophenyl)-3-[1-(2-phenylethyl)piperidin-4-yl]-1 Hyl}pyrimidine], the IC50 amounted to 38.4 nM.

As to `OC(CN1CCC(c2cc(-c3ccc(Cl)cc3)nn2-c2ncccn2)CC1)c1ccccc1` (centres unmarked) [Example 36, 2-{4-[3-(4-Chlorophenyl)-1-(pyrimidin-2-yl)-1H-pyrazol-5-yl]piperidin-1-yl}-1-phenylethanol], the IC50 stood at 0.31 nM.

Turning to `Fc1ccc(-c2nc(C3C4CN(CCc5ccccc5)CC43)n(-c3ncccn3)n2)cc1` (centres unmarked) [Example 82, 6-[3-(4-Fluorophenyl)-1-(pyrimidin-2-yl)-1H-1,2,4-triazol-5-yl]-3-(2-phenylethyl)-3-azabicyclo[3.1.0]hexane], the IC50 was 28.6 nM.

For the compound `COC(=O)C(CN1CCC(c2cc(-c3ccc(F)cc3)nn2-c2ncccn2)CC1)c1ccccc1` (centres unmarked) [Example 33, Methyl 3-{4-[3-(4-fluorophenyl)-1-(pyrimidin-2-yl)-1 H-pyrazol-5-yl]piperidin-1-pyrazol-5-yl]piperidin-1], the IC50 is 0.035 nM.

`CS(=O)(=O)N1CCC(N2CCC(c3cc(-c4ccc(Cl)cc4)nn3-c3ccccc3)CC2)C1` (centres unmarked) [Example 60, 4-[3-(4-chlorophenyl)-1-phenyl-1 H-pyrazol-5-yl]-1-[1-(methylsulfonyl)pyrrolidin-3-yl]piperidine]: the IC50 was 21.1 nM.

Consider `CO[C@@H](CN1CCC(c2nc(-c3ccc(F)cc3)nn2-c2ncccn2)CC1)c1ccccc1` [Example 81, 2-[3-(4-fluorophenyl)-5-{1-[(2 R)-2-methoxy-2-phenylethyl]piperidin-4-yl}-1 H-1,2,4-triazol-1-yl]pyrimidine], for which the IC50 came to 2.58 nM.

Test system in the next assay: not given
Assay: not given
To be noted: intracerebroventricular to rats; cited from earlier work.
t-butyl carbamate-prolyl prolinal [BPP]: the overnight food intake entry is “suppression of overnight food intake”.

Test system in the next assay: not given
Assay: not given
To be noted: limited weight loss of about; cited from earlier work.
`CC(C)(N)Cc1ccccc1` [phentermine]: the “weight loss, of body weight, drug compared to placebo” value (“weight loss … compared to placebo” for short) is given as 5%-10%.

Consider `CC(C)CC(N(C)C)C1(c2ccc(Cl)cc2)CCC1` (centres unmarked) [sibutramine], for which the “weight loss … compared to placebo” value is reported as 5%-10%.

Turning to `CCN[C@@H](C)Cc1cccc(C(F)(F)F)c1` [dexfenfluramine], the “weight loss … compared to placebo” value is recorded as 5%-10%.

As to `CCCCCCCCCCC[C@@H](C[C@@H]1OC(=O)[C@H]1CCCCCC)OC(=O)[C@H](CC(C)C)NC=O` [orlistat], the “weight loss … compared to placebo” value was 5%-10%.

These data come from patent US9365539B2, “Prolylcarboxypeptidase inhibitors” (Merck Sharp & Dohme Corp., priority 2010, dated 2016).
